Starred links: 1 amine or outer side, 2 acyl side, 3 side chain; linkers in the order of their positions; H or OH if unused. Positions of bridges follow the written chain, without caps; N, C: chain ends. Non-standard residues stand in square brackets, D forms with d. Residues, ends and D or L forms follow the SMILES beside them. *: point of attachment. hPhe(3-Cl-4-CF3) = N[C@@H](CCc1ccc(C(F)(F)F)c(Cl)c1)C(=O)O; NMeDab(N,N-(CH2CF2CH2)) = CN[C@@H](CCN1CC(F)(F)C1)C(=O)O; NMePhe(2-CF3) = CN[C@@H](Cc1ccccc1C(F)(F)F)C(=O)O; hPhe(4-CF3) = N[C@@H](CCc1ccc(C(F)(F)F)cc1)C(=O)O; NMeAla(4-thiazolyl) = CN[C@@H](Cc1cscn1)C(=O)O; NMePhe(4-Cl) = CN[C@@H](Cc1ccc(Cl)cc1)C(=O)O; hPhe(4-Cl) = N[C@@H](CCc1ccc(Cl)cc1)C(=O)O; NMedβ3hAla = C[C@H](CC(=O)[*:2])N(C)[*:1]; X22 = O=C([C@@H]1Cc2ccccc2N1[*:1])[*:2]; NMeGly(cPent) = CN[C@H](C(=O)O)C1CCCC1; Phe(3-I) = N[C@@H](Cc1cccc(I)c1)C(=O)O; NMeY = CN[C@@H](Cc1ccc(O)cc1)C(=O)O; NMeCha = CN[C@@H](CC1CCCCC1)C(=O)O; N(isopentyl)Gly = CC(C)CCNCC(=O)O; NMehLeu = CN[C@@H](CCC(C)C)C(=O)O; NMeChg = CN[C@H](C(=O)O)C1CCCCC1; NMeF = CN[C@@H](Cc1ccccc1)C(=O)O; NMeD = CN[C@@H](CC(=O)O)C(=O)O; NMeL = CN[C@@H](CC(C)C)C(=O)O; NMeV = CN[C@H](C(=O)O)C(C)C; d(β3hA) = C[C@@H](N)CC(=O)O; Azetidin(1-yl) = C1CN(*)C1; NMeA = CN[C@@H](C)C(=O)O; Nle = CCCC[C@H](N)C(=O)O; Piperidide = C1CCN(*)CC1; Pyrrolidide = C1CCN(*)C1; Ac5c = NC1(C(=O)O)CCCC1; Aze = O=C(O)[C@@H]1CCN1; Thp = NC1(C(=O)O)CCOCC1; CF3 = FC(F)(F)*; Sar = CNCC(=O)O; Propyl = CCC*
These molecules were tested against T1, Kras and SOS1 (biotin-tagged human Kras loaded with GDP, His-tagged human SOS1) (Homo sapiens, UniProt P01116, G12D) (assay: Protein-protein interaction inhibition between Kras and SOS1 (KrasGl2D-SOS PPI) using AlphaScreen). Settings: AlphaScreen; biotin-tagged human Kras loaded with GDP, His-tagged human SOS1; read-out: KRAS G12D-SOS PPI IC50.
T1 construct: made in house; host or cells: E. coli (stated for Kras only)
T1 sequence (P01116 1-188 isoform P01116-2 G12D): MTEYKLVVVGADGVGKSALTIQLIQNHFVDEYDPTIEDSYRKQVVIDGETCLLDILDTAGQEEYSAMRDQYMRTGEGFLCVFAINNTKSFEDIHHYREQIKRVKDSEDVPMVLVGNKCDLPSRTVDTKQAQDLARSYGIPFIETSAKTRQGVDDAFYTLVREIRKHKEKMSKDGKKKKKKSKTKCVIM
Format: binding
How it was run: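 Donor beads (nickel) hold His-SOS1; acceptor beads (streptavidin) hold biotin-Kras bound to GDP. Signal measured at 520-620 nm following 680 nm excitation.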

| SMILES | IC50 [nM] |
| --- | --- |
| CC[C@H](C)[C@@H]1NC(=O)[C@H](CC(C)C)N(C)C(=O)C[C@@H](C)NC(=O)[C@H](C(C)C)N(C)C(=O)C2(CCCC2)NC(=O)[C@@H]2CCCN2C(=O)[C@H](CCc2ccc(C(F)(F)F)c(Cl)c2)NC(=O)CN(C)C(=O)[C@H](CC2CCCCC2)N(C)C(=O)CN(CCC(C)C)C(=O)CN(C)C1=O [Compound 801] (cyclo([Ac5c][NMeV][d(β3hA)][NMeL]I[Sar][N(isopentyl)Gly][NMeCha][Sar][hPhe(3-Cl-4-CF3)]P)) | 450 |
| CC[C@H](C)[C@@H]1NC(=O)[C@H](CC(C)C)N(C)C(=O)C[C@@H](C)N(C)C(=O)[C@H](CC(C)C)N(C)C(=O)C2(CCOCC2)NC(=O)[C@@H]2CCCN2C(=O)[C@H](CCc2ccc(Cl)cc2)NC(=O)CN(C)C(=O)[C@H](CC2CCCCC2)N(C)C(=O)CN(C)C(=O)CN(C)C1=O [Compound 802] (cyclo(I[Sar][Sar][NMeCha][Sar][hPhe(4-Cl)]P[Thp][NMeL][NMedβ3hAla][NMeL])) | 390 |
| CC[C@H](C)[C@@H]1NC(=O)[C@H](CC(C)C)N(C)C(=O)C[C@@H](C(=O)N(C)C)N(C)C(=O)[C@H](C2CCCC2)N(C)C(=O)[C@H](C)NC(=O)[C@H](Cc2cscn2)N(C)C(=O)[C@H](CCc2ccc(C(F)(F)F)c(Cl)c2)NC(=O)CN(C)C(=O)[C@H](CC2CCCCC2)N(C)C(=O)[C@@H]2CCN2C(=O)[C@H](C)N(C)C1=O [Compound 805] ([NMeL]I[NMeA][Aze][NMeCha][Sar][hPhe(3-Cl-4-CF3)][NMeAla(4-thiazolyl)]A[NMeGly(cPent)][NMeD]-NMe2; lactam N-11) | 38 |
| CC[C@H](C)[C@@H]1NC(=O)[C@H](CCC(C)C)N(C)C(=O)C[C@@H](C(=O)N2CCC2)N(C)C(=O)[C@H](C2CCCC2)N(C)C(=O)C2(CCCC2)NC(=O)[C@@H]2CCCN2C(=O)[C@H](CCc2ccc(C(F)(F)F)c(Cl)c2)NC(=O)CN(C)C(=O)[C@H](CC2CCCCC2)N(C)C(=O)[C@@H]2CCN2C(=O)[C@H](C)N(C)C1=O [Compound 806] ([NMehLeu]I[NMeA][Aze][NMeCha][Sar][hPhe(3-Cl-4-CF3)]P[Ac5c][NMeGly(cPent)][NMeD]-{Azetidin(1-yl)}; lactam N-11) | 1.1 |
| CC[C@H](C)[C@@H]1NC(=O)[C@H](C)N(C)C(=O)C[C@@H](C(=O)N2CCCC2)NC(=O)[C@H](CC(C)C)N(C)C(=O)[C@H](Cc2ccccc2)N(C)C(=O)[C@H](CC(C)C)NC(=O)[C@H](CCc2ccc(C(F)(F)F)cc2)NC(=O)CN(C)C(=O)[C@H](Cc2ccc(Cl)cc2)N(C)C(=O)CN(C)C(=O)CNC1=O [Compound 808] ([NMeA]IG[Sar][NMePhe(4-Cl)][Sar][hPhe(4-CF3)]L[NMeF][NMeL]D-Pyrrolidide; lactam N-11) | 99 |
| CC[C@H](C)[C@@H]1NC(=O)[C@H](CC(C)C)N(C)C(=O)C[C@@H](C(=O)N2CCCCC2)N(C)C(=O)[C@H](C2CCCCC2)N(C)C(=O)C2(CCCC2)NC(=O)[C@@H]2Cc3ccccc3N2C(=O)[C@H](CCc2ccc(C(F)(F)F)c(Cl)c2)NC(=O)CN(C)C(=O)[C@H](CC2CCCCC2)N(C)C(=O)[C@@H]2CCN2C(=O)[C@H](C)N(C)C1=O [Compound 812] ([NMeL]I[NMeA][Aze][NMeCha][Sar][hPhe(3-Cl-4-CF3)][X22][Ac5c][NMeChg][NMeD]-Piperidide; lactam N-11) | 36 |
| CCCC[C@@H]1NC(=O)[C@H](Cc2cccc(I)c2)NC(=O)CN(C)C(=O)[C@H](Cc2ccc(Cl)cc2)N(C)C(=O)CN(C)C(=O)CN(C)C(=O)[C@H]([C@@H](C)CC)NC(=O)[C@H](CC(C)C)N(C)C(=O)C[C@@H](C(=O)N2CCCCC2)N(C)C(=O)[C@H](CC(C)C)NC(=O)[C@H](Cc2ccccc2C(F)(F)F)N(C)C1=O [Compound 813] ([NMeL]I[Sar][Sar][NMePhe(4-Cl)][Sar][Phe(3-I)][Nle][NMePhe(2-CF3)]L[NMeD]-Piperidide; lactam N-11) | 69 |
| CCCOC[C@@H]1NC(=O)[C@H](CCN2CC(F)(F)C2)N(C)C(=O)[C@H](CCc2ccc(C(F)(F)F)c(Cl)c2)NC(=O)CN(C)C(=O)[C@H](CC2CCCCC2)N(C)C(=O)[C@@H]2CCN2C(=O)[C@H](C)N(C)C(=O)[C@H]([C@@H](C)CC)NC(=O)[C@H](CC(C)C)N(C)C(=O)C[C@@H](C(=O)N(C)C)N(C)C(=O)[C@H](C2CCCC2)N(C)C1=O [Compound 817] ([NMeL]I[NMeA][Aze][NMeCha][Sar][hPhe(3-Cl-4-CF3)][NMeDab(N,N-(CH2CF2CH2))]S(Propyl)[NMeGly(cPent)][NMeD]-NMe2; lactam N-11) | 15 |
| CCCC[C@@H]1NC(=O)[C@H](Cc2cccc(I)c2)NC(=O)CN(C)C(=O)[C@H](Cc2ccc(Cl)cc2)N(C)C(=O)CN(C)C(=O)CN(C)C(=O)[C@H]([C@@H](C)CC)NC(=O)[C@H](CC(C)C)N(C)C(=O)C[C@@H](C(=O)N2CCCCC2)N(C)C(=O)[C@H](CC(C)C)NC(=O)[C@H](Cc2ccc(OC(F)(F)F)cc2)N(C)C1=O [Compound 819] ([NMeL]I[Sar][Sar][NMePhe(4-Cl)][Sar][Phe(3-I)][Nle][NMeY](CF3)L[NMeD]-Piperidide; lactam N-11) | 53 |

From patent publication US12371454B2, “Cyclic peptide compound having Kras inhibitory action” (priority 2019, dated 2025)
